Experimental data as given in patent publication US20100204111A1 (priority 2007, published 2010).
Bridges are numbered along the chain shown (N, C = ends). Where no end group is shown, it is not given here. [ ]: non-standard residue; d: D form. Nle = CCCC[C@H](N)C(=O)O

Key:
HIV-1IIIB = test: HIV-1 antiviral assay in CEM-SS cells; type: cell-based
Interleukin-4 (IL-4) = test: Th1/Th2 Cytokine Profiling Assay: IL-4; type: cell-based, Balb/c mice; conditions: 10 micrograms per ml; Ovalbumin-restimulated Balb/c spleen cells; 72 hours
Protocol: (§1) On day 50, spleens of the mice were harvested (3 weeks after last boost with Ovalbumin). […] Thereafter, additional Ovalbumin was added to the cells at 10 micrograms/ml for in vitro restimulation of the cells. 72 hours later, cell supernatants were harvested and assayed using the Becton Dickinson Mouse Th1/Th2 Cytokine CBA Kit. This kit can be used to measure Interleukin-2 (IL-2), Interleukin-4 (IL-4), Interleukin-5 (IL-5), Interferon-γ (IFN-γ), and Tumor Necrosis Factor-α (TNF-α) protein levels in a single sample.

HUVEC = test: Endothelial Tube Formation Assay; type: cell-based, human; conditions: 10 micrograms per ml, 20 hours, combination peptide 1:peptide 2 0.95 mole:1.05 mole
Protocol: The endothelial tube formation assay is based on the ability of endothelial cells to form three-dimensional capillary-like tubular structures when cultured on a gel of basement membrane extract. The endothelial tube formation assay represents a powerful model for studying inhibition and induction of angiogenesis. […] Positive control was vehicle only. The endothelial cells were allowed to form tubes foe 20 hours and were then examined under an inverted fluorescent microscope. Duplicate wells for each treatment were photographed and quantitatevily analyzed for an average tubule length using image analysis software ImageProPlus. Raw data were expressed as average tubule lengths in pixels ±standard deviation. Statistic p values were computed using the Student's t-test.

Interleukin-5 (IL-5) = test: Th1/Th2 Cytokine Profiling Assay: IL-5; type: cell-based, Balb/c mice; conditions: 10 micrograms per ml; Ovalbumin-restimulated Balb/c spleen cells; 72 hours
Protocol: as §1

[1] = system: Human Peripheral Blood Mononuclear Cells (PBMC), B cell proliferation; test: B Cell Proliferation Assay (SAC plus Interleukin-2, 3H-thymidine); type: cell-based; conditions: 10 micrograms per ml; SAC plus Interleukin-2 stimulated PBMC; combination: 0.95 mole peptide 1 and 1.05 mole peptide 2
Protocol: Human Peripheral Blood Mononuclear Cells (PBMC) were obtained from normal human donors. […] 10^5/well PBMC were plated in 96-well microtiter plates and assayed in duplicate with the peptides. […] At the end of incubation time, the plates were harvested and the cells counted by liquid scintillation for the incorporation of ^3H-thymidine as a measure of B cell proliferation.

[2] = system: hepatitis B virus (HBV) ayw strain; type: cell-based; conditions: 10 micrograms per ml; HepG2-2.2.15 cells; six days
[3] = system: Primary Human endothelial cells (HUVEC); test: Endothelial Cell Migration Assay; type: cell-based; conditions: 10 micrograms per ml, 22 hours, combination peptide 1:peptide 2 0.95 mole:1.05 mole
Protocol: Primary Human endothelial cells (HUVEC) were seeded in insert chambers with 3 micrometer pore size of multi-transwell plate for 6 hours at 37° C. in Endothelial Cell Basal Medium (EBM) supplemented with 0.1% bovine serum albumin. […] Images of 3 fields per insert were taken and the number of migrated cells per field were quantified using the ImageProPlus software. Data were analyzed for the average number of the migrated cells and standard deviation of six data points for each treatment condition. […] Statistic p values were computed using the Student's t-test.

[4] = system: Tumor Necrosis Factor-α (TNF-α); test: Th1/Th2 Cytokine Profiling Assay: TNF-α; type: cell-based, Balb/c mice; conditions: 10 micrograms per ml; Ovalbumin-restimulated Balb/c spleen cells; 72 hours
Protocol: as §1

Interferon-γ (IFN-γ) = test: Th1/Th2 Cytokine Profiling Assay: IFN-γ; type: cell-based, Balb/c mice; conditions: 10 micrograms per ml; Ovalbumin-restimulated Balb/c spleen cells; 72 hours
Protocol: as §1

Interleukin-2 (IL-2) = test: Th1/Th2 Cytokine Profiling Assay: IL-2; type: cell-based, Balb/c mice; conditions: 10 micrograms per ml; Ovalbumin-restimulated Balb/c spleen cells; 72 hours
Protocol: as §1

HCMV strain AD169 = type: cell-based; conditions: MRC-5 cells

CC(C)(C)NC(=O)[C@@H]1CN(Cc2cccnc2)CCN1C[C@@H](O)C[C@@H](Cc1ccccc1)C(=O)N[C@H]1c2ccccc2C[C@H]1O [indinavir]
antiviral activity (positive control compounds) (HIV-1IIIB): expected levels of antiviral activity

Tyr-Gly-Gly-Phe-Met-Thr-Ser-Glu-Lys-Ser-Gln-Thr-Pro-Leu-Val-Thr-Leu-Phe-Lys-Asn-Ala-Ile-Ile-Lys-Asn-Ala-Tyr-Lys-Lys-Gly-Glu-OH [Peptide 2]
IL-4 spleen cells; TH2 response (% of control) (Interleukin-4 (IL-4)): 100.6 % of control | inhibition of the tube formation of endothelial cells (HUVEC): 38% | IL-5 spleen cells; TH2 response (% of control) (Interleukin-5 (IL-5)): 103.3 % of control | induction of the proliferation of specifically stimulated human B-cells [1]: 22.7% | inhibition of HBV replication on tested liver cells [2]: no effect | inhibition of the migration of human endothelial cells [3]: 29% | TNF-a spleen cells; TH1 response (% of control) [4]: 110.7 % of control | IFNγ spleen cells; TH1 response (% of control) (Interferon-γ (IFN-γ)): 106.6 % of control | IL-2 spleen cells (% of control) (Interleukin-2 (IL-2)): 163.9 % of control | inhibition of HCMV plaque formation as compared to the virus control (HCMV strain AD169; 10 micrograms per ml, 7-10 days): did not inhibit

Nc1nc(O)c2ncn(COC(CO)CO)c2n1 [Ganciclovir, reference compound]
antiviral activity (positive control compound) (HCMV strain AD169; positive control, HCMV AD169): expected levels of antiviral activity

[dF]HLLREVLE[Nle]ARAEQLAQEAHKNRKL[Nle]EII-NH2 (lactam 19-22) [Peptide 1]
IL-4 spleen cells; TH2 response (% of control) (Interleukin-4 (IL-4)): 114.4 % of control | inhibition of the tube formation of endothelial cells (HUVEC): 31% | IL-5 spleen cells; TH2 response (% of control) (Interleukin-5 (IL-5)): 90.1 % of control | induction of the proliferation of specifically stimulated human B-cells [1]: 11.1% | inhibition of the migration of human endothelial cells [3]: 13% | TNF-a spleen cells; TH1 response (% of control) [4]: 120.0 % of control | IFNγ spleen cells; TH1 response (% of control) (Interferon-γ (IFN-γ)): 137.6 % of control | IL-2 spleen cells (% of control) (Interleukin-2 (IL-2)): 210.4 % of control

Cc1cn([C@H]2C[C@H](N=[N+]=[N-])[C@@H](CO)O2)c(=O)[nH]c1=O [AZT]
antiviral activity (positive control compounds) (HIV-1IIIB): expected levels of antiviral activity
